Laboratory results reported in US20150147411A1, “COMPOSITION FOR PREVENTING OR TREATING COLITIS COMPRISING S-ALLYL-L-CYSTEINE AS ACTIVE INGREDIENT, AND MEDICAL PREPARATION COMPRISING SAME” (PHARMAKING CO., LTD., priority 2012, published 2015).

What was measured:
Format in all cases: in vivo, C57BL6 mice
[1] = Body weight of mice pre-treated with compositions, DSS-induced colitis
Experimental: In this experiment, C57BL6 mice were employed for the following reasons. The experimental animals are widely used throughout the world and are evaluated as being suitable for validity assays. In addition, because a great amount of fundamental test data on various disease models of the animals has been accumulated, the data can be utilized in analyzing and assessing test results. When purchased from OrientBio Inc. the experimental animals weighed 18 g±20%. They were bred under a light intensity of 150˜300 Lux in the controlled condition of 12:12-h light-dark cycles, with at least 10 ventilation rounds per hour.
(§1) For use in testing therapeutic effects of the agents of Examples, Comparative Examples, and Control Examples, the mice (G1 to G7) were fed with a 2.5 wt % aqueous dextran sodium sulfate (DSS) solution to induce inflammatory bowel disease therein.
Weights are expressed as mean±standard deviation.
From Jan. 12, 2012, the mice were allowed to drink an aqueous DSS 2.5 wt % solution for 7 days. DSS-induced diarrhea or hematochezia caused mice in groups G2 to G7 to lose weight, as compared at the point of DSS treatment.

[2] = Side effects of S-allyl-L-cysteine
From the text: Cyclosporine or prednisolone, which are […] used to treat colitis thanks to their immunosuppressive effects, are reported to have the side effect of weight gain.
The anti-inflammatory agents including mesalizine or mesalazine, NSAIDs, etc. are known to cause various side effects such as hypersensitive reactions, nausea, vomiting, headache, etc.

IL-6 = test: Level of inflammatory cytokine IL-6; conditions: G3 to G6 (12.5-100 mg/kg), FIG. 8, equivalency to control G7
Experimental: as §1
(§2) Levels of IL-1β IL-6, IL-12, and TNF-α, which are representative inflammation-inducing cytokines, were measured. […] The observation results are depicted in […].

IL-12 = test: Level of inflammatory cytokine IL-12; conditions: G3 to G6 (12.5-100 mg/kg), FIG. 10, equivalency to control G7
Experimental: as §1, §2

[3] = system: total antioxidant concentration; test: Anti-oxidant activity: total antioxidant concentrations in tissues; conditions: G3 (12.5 mg/kg) compared to the DSS-treated group
From the text: as §1
Its amount was discovered to decrease at a low concentration of S-allyl-L-cysteine as in G3 and G4, with statistical significance.

IL-1β = test: Level of inflammatory cytokine IL-1β; conditions: G3 to G6 (12.5-100 mg/kg), FIG. 7, equivalency to control G7
Experimental: as §1, §2

Malondialdehyde (MDA) = test: Anti-oxidant activity: malondialdehyde (MDA), lipid peroxidation
From the text: as §1
Malondialdehyde (MDA), accounting for the degree of lipid peroxidation, a representative marker of oxidation stress, was quantified.

TNF-α = test: Level of inflammatory cytokine TNF-α; conditions: G3 to G6 (12.5-100 mg/kg), FIG. 9, equivalency to control G7
Experimental: as §1, §2

COX-2 = COX-2 expression in colon tissue by immunofluorescence
Experimental: as §1
The immunofluorescence of COX-2 was performed on paraffin unstained slides of animal tissues.

[4] = system: dextran sodium sulfate (DSS)-induced colitis mouse models; test: Colon length from cecum to end of colon, DSS-induced colitis; conditions: G3 to G6 (12.5-100 mg/kg) compared to Comparative Example, with statistical significance, FIG. 4
From the text: as §1
After 7 days of DSS drinking, the mice were sacrificed in an ether anesthetized condition, and the colon was excised.
(§3) At the end of the test, Disease Activity Index (DAI) Scores were made in consideration of the degree of hematochezia and diarrhea, and are depicted in FIG. 3. In the graph, # represents significance (p<0.0001) compared to the normal (G1), and * represents significance (p<0.05), compared to the colitis animal model.

[5] = system: dextran sodium sulfate (DSS)-induced colitis mouse models; test: Pathological observation of colon by H&E staining, total pathologic score
Experimental: as §1
Colon specimens taken were fixed in a 10% formalin solution and stained with hematoxylin & eosin (H&E stain), and their images are given in FIG. 5. Further, they were evaluated through a blind test under the criteria of a total of six histopathological opinions on inflammation (inflammation, follicle aggregation, oedema, erosion/ulceration, crypt loss, and infiltration of mono- and polymorphonuclear cells), and scored. Total pathologic scores obtained by summing up scores for each items and for the six opinions are depicted in FIG. 6.

[6] = system: dextran sodium sulfate (DSS)-induced colitis mouse models; test: Disease Activity Index (DAI) score, DSS-induced colitis
From the text: as §1, §3

Q: For `C=CCSC[C@H](N)C(=O)O` [Example 1, S-allyl-L-cysteine], which “Body weight (mean ± standard deviation)” value ([1]; G3, Ex. 1 12.5 mg/kg, 2012.01.12, at the time of DSS treatment, 12.5 mg/kg) is on record?
A: 22.1 ± 2.4 g

Q: And the “Body weight (mean ± standard deviation)” value ([1]; G3, Ex. 1 12.5 mg/kg, 2012.01.18, at autopsy after 7 days DSS 2.5 wt %, 12.5 mg/kg)?
A: 20.3 ± 2.2 g

Q: And the “Body weight (mean ± standard deviation)” value ([1]; G4, Ex. 1 25 mg/kg, 2012.01.12, at the time of DSS treatment, 25 mg/kg)?
A: 22.8 ± 0.8 g

Q: What about the “Body weight (mean ± standard deviation)” value ([1]; G4, Ex. 1 25 mg/kg, 2012.01.18, at autopsy after 7 days DSS 2.5 wt %, 25 mg/kg) of the same compound?
A: 20.5 ± 0.9 g

Q: What about the “Body weight (mean ± standard deviation)” value ([1]; G5, Ex. 1 50 mg/kg, 2012.01.12, at the time of DSS treatment, 50 mg/kg) of the same compound?
A: 22.9 ± 1.1 g

Q: What about the “Body weight (mean ± standard deviation)” value ([1]; G5, Ex. 1 50 mg/kg, 2012.01.18, at autopsy after 7 days DSS 2.5 wt %, 50 mg/kg) of the same compound?
A: 21.4 ± 0.8 g

Q: What about the “Body weight (mean ± standard deviation)” value ([1]; G6, Ex. 1 100 mg/kg, 2012.01.12, at the time of DSS treatment, 100 mg/kg) of the same compound?
A: 22.2 ± 1.3 g

Q: What about the “Body weight (mean ± standard deviation)” value ([1]; G6, Ex. 1 100 mg/kg, 2012.01.18, at autopsy after 7 days DSS 2.5 wt %, 100 mg/kg) of the same compound?
A: 21.6 ± 0.7 g

Q: And the “Side effect of weight gain” value ([2]; G3 to G6 (12.5-100 mg/kg))?
A: not cause the side effect of weight gain

Q: And the “Side effects (hypersensitive reactions, nausea, vomiting, headache, etc.)” value ([2]; G3 to G6, extended test period of 12 weeks)?
A: did not suffer from the side effects

Q: What about the “Expression level of IL-6” value (IL-6) of the same compound?
A: decreased expression levels

Q: What about the “Expression level of IL-12” value (IL-12) of the same compound?
A: decreased expression levels

Q: What about the “Total antioxidant concentration in tissues” value [3] of the same compound?
A: increase in antioxidant concentration

Q: What about the “Expression level of IL-1β” value (IL-1β) of the same compound?
A: decreased expression levels

Q: And the “Amount of malondialdehyde (MDA)” value (Malondialdehyde (MDA); G3 and G4 (12.5 and 25 mg/kg), with statistical significance)?
A: decrease

Q: What about the “Level of MDA” value (Malondialdehyde (MDA); G3 to G6 (12.5-100 mg/kg), equivalency or superiority to control G7) of the same compound?
A: decreased the level of MDA

Q: What about the “Expression level of TNF-α” value (TNF-α) of the same compound?
A: decreased expression levels

Q: What about the COX-2 expression level (COX-2; G3 (12.5 mg/kg)) of the same compound?
A: significantly increased

Q: And the “COX-2 expression levels in mucosal tissues” value (COX-2; G3 to G6 (12.5-100 mg/kg), immunofluorescence, FIG. 13)?
A: reduced COX-2 expression levels

Q: And the “COX-2 expression in the fascial tissue” value (COX-2; G4 to G6 (25-100 mg/kg), immunofluorescence)?
A: inhibited COX-2 expression even in the fascial tissue

Q: What about the COX-2 expression level (COX-2; other test groups (G4 to G6, 25-100 mg/kg)) of the same compound?
A: significantly decrease

Q: What about the Colon length [4] of the same compound?
A: recovered the colon length

Q: What about the “Rehabilitation of mucosal tissues by total pathologic score” value ([5]; G3 (12.5 mg/kg), FIG. 6) of the same compound?
A: best rehabilitation of mucosal tissues

Q: What about the “Histology of intestinal mucosa tissues (H&E)” value ([5]; G3 to G6 (12.5-100 mg/kg), FIG. 5) of the same compound?
A: recovered the intestinal mucosa tissues to a normal state

Q: What about the “Total pathologic score (H&E)” value ([5]; G3 to G6 (12.5-100 mg/kg), FIG. 6) of the same compound?
A: lowered the pathologic score

Q: What about the “Therapeutic effect (pathologic score) compared with control G7” value ([5]; G3 to G6 vs G7 (Control 50 mg/kg)) of the same compound?
A: equivalent to or higher than that of the control G7

Q: What about the “Therapeutic effects (DAI, colon length) compared with conventional agent (G7)” value ([6]; G3 to G6 (12.5-100 mg/kg) vs G7 (Control 50 mg/kg)) of the same compound?
A: equivalent to or higher than those of the conventional agent

Q: And the “Disease Activity Index (DAI) score” value ([6]; G3 to G6 (12.5-100 mg/kg), DSS 2.5 wt %, end of test, FIG. 3)?
A: score low in DAI

Q: Which “Body weight (mean ± standard deviation)” value ([1]; G7, Control 50 mg/kg, 2012.01.12, at the time of DSS treatment) does the source give for `O=C(NC(Cc1cc(=O)[nH]c2ccccc12)C(=O)O)c1ccc(Cl)cc1` (stereo not drawn) [Control, Rebamipide, reference compound] here?
A: 23.2 ± 1.2 g

Q: What about the “Body weight (mean ± standard deviation)” value ([1]; G7, Control 50 mg/kg, 2012.01.18, at autopsy after 7 days DSS 2.5 wt %) of the same compound?
A: 21.1 ± 0.9 g

Q: What about the “Side effects (hypersensitive reactions, nausea, vomiting, headache, etc.)” value ([2]; control G7, extended test period of 12 weeks) of the same compound?
A: side effects detected

Q: And the “COX-2 expression in the fascial tissue beneath the mucosal tissue” value (COX-2; G7 (Control 50 mg/kg), immunofluorescence)?
A: did not effectively do so

Q: What about the “COX-2 expression in mucosal tissues” value (COX-2; G7 (Control 50 mg/kg), immunofluorescence, FIG. 13) of the same compound?
A: inhibited COX-2 expression in mucosal tissues
